Reference: patent US6034086A, “Trifluoromethylquinolinecarboxylic acid derivative” (priority 1994, dated 2000)
In brackets after ≈: the same amount, converted by molar mass. Read-outs that look alike come from different tables or passages of the source.

Tests used:
[1] = test system: HIV; experiment: cellular disorder-suppressing activity (anti-HIV activity) in HIV-infected MT-4 cells, MTT, method of R. Pauwel et al.; format: cell-based; details: for EC50: Human immunodeficiency virus 1, MT4, 120 h, HIV-infected MT-4 cells, 37° C., 5 days, 5% carbon dioxide, MTT, read-out: EC50 (50% cellular disorder-suppressing activity against the HIV-infected cells)
Description: That is, MT-4 cells were centrifuged (1000×g, 5 minutes), and a cell-floating solution in which the resulting cellular sediments were suspended in a RPMI-1640 medium containing no serum was inoculated with HIV. The mixture was cultured at 37° C. for 1 hour and then added to a RPMI-1640 medium to which 10% bovine fetal serum was added (hereinafter referred to as the serum medium), and the mixture was washed and centrifuged (1000×g, 5 minutes). The HIV-infected cells thus obtained and HIV-non-infected cells were suspended in the serum media in an amount of 4×10^5 /ml, respectively, and each 100 μl of the suspensions were apportioned to the respective wells of a multiwell with 96 wells for tissue culture. Each 100 μl of the compounds which had been previously diluted with the serum medium stepwisely were apportioned to these respective wells, and then the mixtures were left to stand and cultured at 37° C. for 5 days in the presence of 5% carbon dioxide. In the same manner, the HIV-infected cells and the HIV-non-infected cells to which the compound was not added were cultured. […] It was confirmed that no mycoplasma was contained in the cell solution and the virus-inoculated solution.
The cellular disorder-suppressing activity against the HIV-non-infected cells to which the compound was not added was defined as 100%, and the cellular disorder-suppressing activity against the HIV-infected cells to which the compound was not added was defined as 0%.

[2] = test system: HIV; details: AIDS 4, 1283 (1990) for DR-3355; WO 90/13542 for the others; cited from earlier work
[3] = method of R. Pauwel et al., statement in background section

Structure (SMILES): C[C@H]1COc2c(N3CCN(C)CC3)c(F)cc3c(=O)c(C(=O)O)cn1c23 [DR-3355]
- cellular disorder-suppressing activity to HIV-infected cells (anti-HIV activity), in words [1, 3]: no anti-HIV activity was recognized
- anti-HIV activity reported in literature, in words [2]: anti-HIV activity

Structure (SMILES): NC1CCN(c2nc3c(cc2F)c(=O)c(C(=O)O)cn3-c2ccc(F)cc2F)C1 (centres unmarked) [Tosufloxacin]
- cellular disorder-suppressing activity to HIV-infected cells (anti-HIV activity), in words [1, 3]: no anti-HIV activity was also recognized
- anti-HIV activity reported in literature, in words [2]: anti-HIV activities

Structure (SMILES): CCn1cc(C(=O)O)c(=O)c2cc(F)c(N3CCNCC3)nc21 [Enoxacin]
- cellular disorder-suppressing activity to HIV-infected cells (anti-HIV activity), in words [1, 3]: no anti-HIV activity was also recognized
- anti-HIV activity reported in literature, in words [2]: anti-HIV activities

Structure (SMILES): Cn1cc(C(=O)O)c(=O)c2cc(F)c(N3CCN(c4ccccn4)CC3)c(C(F)(F)F)c21 [Example 9, 6-fluoro-8-trifluoromethyl-1,4-dihydro-4-oxo-1-methyl-7-[4-(2-pyridyl)piperazin-1-yl]quinoline-3-carboxylic acid]
- EC50 [1]: 0.005 µg/mL (≈ 0.0111 µM)

Structure (SMILES): Cn1cc(C(=O)O)c(=O)c2cc(F)c(N3CCN(c4ccc(F)cc4)CC3)c(C(F)(F)F)c21 [Example 22, 6-fluoro-8-trifluoromethyl-1,4-dihydro-4-oxo-1-methyl-7-[4-(4-fluorophenyl)piperazin-1-yl]quinoline-3-carboxylic acid]
- EC50 [1]: 0.0096 µg/mL (≈ 0.0205 µM)

Structure (SMILES): CN1CCN(c2cc3c(cc2F)c(=O)c(C(=O)O)cn3-c2ccc(F)cc2)CC1 [Difloxacin]
- cellular disorder-suppressing activity to HIV-infected cells (anti-HIV activity), in words [1, 3]: no anti-HIV activity was also recognized
- anti-HIV activity reported in literature, in words [2]: anti-HIV activities

Structure (SMILES): O=C(O)c1cn(C2CC2)c2cc(N3CCNCC3)c(F)cc2c1=O [Ciprofloxacin]
- cellular disorder-suppressing activity to HIV-infected cells (anti-HIV activity), in words [1]: no anti-HIV activity was also recognized
- anti-HIV activity reported in literature, in words [2]: anti-HIV activities

Structure (SMILES): Cn1cc(C(=O)O)c(=O)c2cc(F)c(N3CCN(c4ncccn4)CC3)c(C(F)(F)F)c21 [Example 8, 6-fluoro-8-trifluoromethyl-1,4-dihydro-4-oxo-1-methyl-7-[4-(2-pyrimidinyl)piperazin-1-yl]quinoline-3-carboxylic acid]
- EC50 [1]: 0.02 µg/mL (≈ 0.0443 µM)

Structure (SMILES): O=C(O)c1cn(C2CC2)c2c(C(F)(F)F)c(N3CCN(c4ccccn4)CC3)c(F)cc2c1=O [Example 2, 1-cyclopropyl-6-fluoro-8-trifluoromethyl-1,4-dihydro-4-oxo-7-[4-(2-pyridyl)piperazin-1-yl]quinoline-3-carboxylic acid]
- EC50 [1]: 0.02 µg/mL (≈ 0.042 µM)

Structure (SMILES): CCn1cc(C(=O)O)c(=O)c2cc(F)c(N3CCNCC3)cc21 [Norfloxacin]
- cellular disorder-suppressing activity to HIV-infected cells (anti-HIV activity), in words [1, 3]: no anti-HIV activity was also recognized
- anti-HIV activity reported in literature, in words [2]: anti-HIV activities

Structure (SMILES): CCn1cc(C(=O)O)c(=O)c2cc(F)c(N3CCNC(C)C3)c(F)c21 (centres unmarked) [Lomefloxacin]
- cellular disorder-suppressing activity to HIV-infected cells (anti-HIV activity), in words [1, 3]: no anti-HIV activity was also recognized
- anti-HIV activity reported in literature, in words [2]: anti-HIV activities

Structure (SMILES): CCn1cc(C(=O)O)c(=O)c2cc(F)c(N3CCN(c4ccccn4)CC3)c(C(F)(F)F)c21 [Example 11, 1-ethyl-6-fluoro-8-trifluoromethyl-1,4-dihydro-4-oxo-7-[4-(2-pyridyl)piperazin-1-yl]quinoline-3-carboxylic acid]
- EC50 [1]: 0.01 µg/mL (≈ 0.0215 µM)

Structure (SMILES): Cn1cc(C(=O)O)c(=O)c2cc(F)c(N3CCN(c4nccs4)CC3)c(C(F)(F)F)c21 [Example 23, 6-fluoro-8-trifluoromethyl-1,4-dihydro-4-oxo-1-methyl-7-[4-(2-thiazolyl)piperazin-1-yl]quinoline-3-carboxylic acid]
- EC50 [1]: 0.011 µg/mL (≈ 0.0241 µM)
